pIC50: −log10 of the molar value.
Key:
AR-peptide interaction = target: T1, AR-peptide interaction (Homo sapiens, UniProt P10275); assay: AR-peptide interaction reporter assay (GAL4-DBD-3-18 / VP16-AR) in PC-3 cells; assay type: cell-based; settings: 10 nM DHT, Figure 6B
T1 construct: expressed in transfected cells; host or cells: PC-3
T1 sequence (P10275 1-920): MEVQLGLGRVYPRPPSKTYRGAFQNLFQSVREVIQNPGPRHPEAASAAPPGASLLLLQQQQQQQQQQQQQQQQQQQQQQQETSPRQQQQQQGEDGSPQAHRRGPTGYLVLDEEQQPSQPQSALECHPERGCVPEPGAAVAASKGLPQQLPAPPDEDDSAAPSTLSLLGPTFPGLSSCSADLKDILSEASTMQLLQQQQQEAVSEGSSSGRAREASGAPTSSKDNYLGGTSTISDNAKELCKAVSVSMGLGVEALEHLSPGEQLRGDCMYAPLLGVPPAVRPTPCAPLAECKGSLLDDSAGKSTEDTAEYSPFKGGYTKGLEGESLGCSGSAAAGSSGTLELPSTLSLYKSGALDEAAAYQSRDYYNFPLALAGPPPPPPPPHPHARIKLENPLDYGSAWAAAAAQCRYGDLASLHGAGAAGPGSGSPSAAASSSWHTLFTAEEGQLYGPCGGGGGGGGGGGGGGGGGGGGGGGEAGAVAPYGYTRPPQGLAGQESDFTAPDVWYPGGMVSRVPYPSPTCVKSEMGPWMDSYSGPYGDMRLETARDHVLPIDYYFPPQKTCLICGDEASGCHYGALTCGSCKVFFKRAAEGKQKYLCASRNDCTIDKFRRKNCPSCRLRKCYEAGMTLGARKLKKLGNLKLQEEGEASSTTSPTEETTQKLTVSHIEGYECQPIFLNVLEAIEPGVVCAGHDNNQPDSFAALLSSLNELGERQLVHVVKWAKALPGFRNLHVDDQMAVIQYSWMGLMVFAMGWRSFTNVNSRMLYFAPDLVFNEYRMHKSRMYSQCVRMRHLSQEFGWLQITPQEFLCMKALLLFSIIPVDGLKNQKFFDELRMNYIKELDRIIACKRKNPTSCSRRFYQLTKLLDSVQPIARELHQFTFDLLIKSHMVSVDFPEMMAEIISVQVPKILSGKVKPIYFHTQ
Description: (§1) Figure 6 Mechanism underlying suppression of AR-related functions by oxadiazole derivatives (A–C) Transcriptional activity in reporter assays. PC-3 cells in 24-well plates were transfected as indicated below. After incubation for 16 h, cells were treated with ethanol, 10 nM DHT, or 0.01–10 μM HWC-489 or LHJ-647 for an additional 16 h. Luciferase activity in cell lysates was determined and normalized to protein concentrations. Relative luciferase activity was calculated using the luciferase reporter assay system. (A) PC-3 cells were co-transfected with 350 ng pCDNA3-flag-hAR-N (residues 1–506), 350 ng pCDNA3-hAR-C (residues 556–919), and 300 ng MMTV-Luc plasmids. (B) PC-3 cells were co-transfected with 350 ng GAL4-DBD-3-18, 350 ng pCMX-VP16-AR, and 300 ng pG5-Luc plasmids. (C) PC-3 cells were transfected with 350 ng GAL4-DBD-ARA54C, 350 ng VP16-AR, and 300 ng pG5-Luc plasmids. (D) LHJ-647 promotes AR protein degradation.

LNCaP = assay: cell growth assay (MTT), LNCaP; assay type: cell-based; settings: Homo sapiens, 48 h, Figure 4B, read-out: IC50, prostate cancer cell line growth
Description: LNCaP, CWR22R, and PC-3 cells were grown in RPMI containing 10% FBS. Cells were plated at a density of 5 × 10^4 cells/well in 24-well plates overnight and incubated with difference concentrations of chemicals for 48 h. Cell growth was assessed using the 3-{4,5-dimethylthiazol-2-yl}-2,5-diphenyltetrazolium bromide (MTT) assay. At each time-point, 50 μl of 5 mg/ml MTT was added to each well containing 500 μl medium and incubated for 3 h, followed by the addition of 500 μl isopropyl alcohol to dissolve the reduced formazan product. Absorbance of each well was measured at a wavelength of 590 nm in a DU 640B spectrophotometer (Beckman, Fullerton, CA), according to the manufacturer’s protocol. Values represent mean OD590 ± SD from at least three independent reaction wells.

AR N-C interaction = target: T2, AR N-C interaction (Homo sapiens, UniProt P10275); assay: AR N-C interaction reporter assay in PC-3 cells; assay type: cell-based; settings: 10 nM DHT, Figure 6A
T2 construct: pCDNA3-hAR-C (residues 556–919); expressed in transfected cells; host or cells: PC-3
T2 sequence (P10275 556-919): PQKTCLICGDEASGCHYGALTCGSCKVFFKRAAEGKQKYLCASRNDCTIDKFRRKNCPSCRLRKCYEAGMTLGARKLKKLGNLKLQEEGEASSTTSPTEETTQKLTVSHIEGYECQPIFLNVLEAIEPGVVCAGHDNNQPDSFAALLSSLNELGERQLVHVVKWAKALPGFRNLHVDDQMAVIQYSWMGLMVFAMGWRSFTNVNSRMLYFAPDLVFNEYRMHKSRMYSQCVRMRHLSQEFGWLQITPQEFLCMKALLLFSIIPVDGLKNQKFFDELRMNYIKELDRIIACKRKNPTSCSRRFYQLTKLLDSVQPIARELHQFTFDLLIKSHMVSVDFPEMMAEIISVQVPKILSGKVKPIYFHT
Description: as §1

NOD/SCID mice = assay: treatment toxicity monitoring in xenograft mice; assay type: in vivo; settings: for changes in body weight, clinical signs and gross morphology: during the study period; for mouse mortality: in vivo
Description: All experiments involving laboratory animals were conducted in accordance with the Guidelines for Animal Experiments of Chang Gung Memorial Hospital and approved by the Animal Research Committee at the hospital. LNCaP cells were harvested, washed twice with phosphate-buffed saline, and resuspended at a final concentration of 5 × 10^6 cells/mL in Matrigel (BD Biosciences, San Jose, CA) containing basement membrane components. Next, 5 × 10^5 cells (100 μL per site) were subcutaneously injected into the flanks of 4–6 week-old male NOD/SCID mice (BioLASCO, Taiwan). Tumor development was confirmed within 2–3 weeks after injection of the same number of cell subclones. Treatment with different chemicals was initiated at the same time. Tumor dimensions were measured twice a week with calipers, and tumor volumes calculated using the formula: tumor volume (mm^3) = tumor length (mm) × [tumor width (mm)]^2 × 0.5. Three to five mice were used per group (with or without chemical treatment). Mice were sacrificed 4 weeks after chemical injection and tumors harvested for further analyses. For evaluation of treatment toxicity, animal mortality, changes in body weight, clinical signs and gross morphology were monitored during the experiment.

AR-cofactor interaction = target: T3, AR-cofactor interaction (Homo sapiens, UniProt P10275); assay: AR-cofactor interaction reporter assay (GAL4-DBD-ARA54C / VP16-AR) in PC-3 cells; assay type: cell-based; settings: 10 nM DHT, Figure 6C
T3 construct: expressed in transfected cells; host or cells: PC-3
T3 sequence (P10275 1-920): T1 sequence (P10275 1-920)
Description: as §1

Row | SMILES | concentration range of significant suppression of AR-peptide interaction (AR-peptide interaction) | pIC50 (LNCaP) | concentration range of significant suppression of AR N-C interaction (AR N-C interaction) | changes in body weight, clinical signs and gross morphology (NOD/SCID mice) | mouse mortality (NOD/SCID mice) | concentration range of significant suppression of AR-cofactor interaction (AR-cofactor interaction)
1 | Cc1ccc(-c2nnc(Nc3ccccc3)o2)cc1 [HWC-489] | 0.1 to 1 µM | 5.00 to 6.00 | 0.1 to 1 µM | no significant alterations | No mouse mortality was observed | 0.1 to 1 µM
2 | COc1cccc(Nc2nnc(-c3ccc(N(C)C)cc3)o2)c1 [LHJ-647] | 0.1 to 1 µM | 5.00 to 6.00 | 0.1 to 1 µM | no significant alterations | No mouse mortality was observed | 0.1 to 1 µM

Reference: article PMC5642495, “Characterization of a novel androgen receptor (AR) coregulator RIPK1 and related chemicals that suppress AR-mediated prostate cancer growth via peptide and chemical screening” (Oncotarget, 2017)
